How the values were obtained:
ABCA1 mRNA = ABCA1 mRNA induction in cultured peritoneal macrophages; format: cell-based, mice; settings: 24 hours
Source text: (§1) The individual contributions of both receptors to macrophage gene expression were examined by first measuring the amount of mRNA encoding LXRα and LXRβ in thioglycolate-elicited peritoneal macrophages obtained from mixed wildtype mice. Thioglycolate-elicited peritoneal macrophages were isolated from mice 4 days after peritoneal injection of thioglycolate media. Peritoneal macrophages were harvested by lavage of the peritoneum with phosphate buffered saline (PBS), cells were washed, transferred to 60 mm culture plates and incubated at 37° C. in RPMI 1640 media (Life Technologies) containing 10% FBS, 2 mmol/L glutamine, 100 μg/mL streptomycin and 100 IU penicillin (Life Technologies). After 5 hours at 37° C., cells were washed 5 times with PBS to remove non-adherent cells and adherent cells were further incubated in RPMI 1640 media supplemented with 10% FBS for 24 hours. To determine the mRNA levels of LXRα and LXRβ, after 24 hours total RNA was isolated from cultured macrophages using RNeasy kits (QIAGEN Inc.) according to the supplier's total RNA isolation procedure. The RNA samples were further treated with deoxyribonuclease I to eliminate contaminating genomic DNA. LXRα and LXRβ mRNA levels were than analyzed by real-time based quantitative PCR using Perkin Elmer ABI Prism 7700 and Sequence Detection System software (Perkin Elmer). […] To further examine LXR-dependent gene expression in macrophages, peritoneal macrophages were isolated as described above from mixed wildtype, LXRα−/− (C57BL/6), LXRβ−/−, and LXRαβ−/− mice. After removal of non-adherent cells, the remaining macrophages were than cultured in either the absence or presence of LXR pan-agonist (1.0 μM Compound 1) for 24 hours. At the end of the experiment total RNA was isolated from cultured macrophages using RNeasy kits (QIAGEN Inc.) according to the supplier's total RNA isolation procedure. RNA samples were further treated with deoxyribonuclease I to eliminate contaminating genomic DNA before use. The LXR agonist-dependent induction of the ABCA1 and ABCG1 mRNAs were than analyzed by real-time based quantitative PCR using Perkin Elmer ABI Prism 7700 and Sequence Detection System software (Perkin Elmer). ABCA1 and ABCG1 function as efflux pumps that mediate the transfer of intracellular cholesterol out of cells to HDL particles, a process referred to as reverse cholesterol transport. […] Elimination of LXRα activity (LXRα−/−) has no effect on the agonist-dependent response. In contrast, elimination of LXRβ activity (LXRβ−/−) reduces the agonist-dependent induction of ABCA1 by 82% and the ABCG1 induction by 50%. […] Thus LXRβ alone is sufficient to allow the maximum induction of ABCA1 and ABCG1 in peritoneal macrophages.

ABCG1 mRNA = ABCG1 mRNA induction in cultured peritoneal macrophages; format: cell-based, mice; settings: 24 hours
Source text: as §1

[1] = Plasma glucose levels in db/db mice; format: in vivo; settings: 50 mg/kg daily oral gavage, 14 days
Source text: Cardiovascular disease is one of the major complications of type II diabetes. […] A mouse model of type II diabetes is the diabetic (db/db) mouse. [See Coleman, D. L. (1978), Obese and Diabetes: Two Mutant Genes Causing Diabetes-Obesity Syndrom In Mice. Diabetologia 14, 141-148; and Hong Chen, Olga […], Louis […], Elizabeth A. Woolf, Xun Weng, Stephen J. Ellis, […], Janice Culpepper, Karen J. More, Roger E. Breitbart, Geoffrey M. Duyk, Robert I. and Jay P. Morgenstern (1996), Evidence That The Diabetes Gene Encodes The Leptin Receptor: Identification Of A Mutation In The Leptin Receptor In db/db Mice, Cell 84, 491-495.] […] To examine the ability of LXR agonists to modulate blood glucose levels, db/db mice were treated for 14 days with 50 mg compound/kg body weight of the LXR agonist Compound 1. As a positive control animals were also treated with 30 mg compound/kg body weight of the retinoid X receptor (RXR) agonist. […] Both compounds were administered by daily oral gavage in a sesame oil/ethanol vehicle via a 1-cc syringe fitted with a 20G disposable feeding needle. […] Plasma glucose levels were determined using a colorimetric enzymatic assay adapted to a 96 well plate format (Sigma, St. Louis, Mo.). […] The absorbance of the samples and standards were read using a Multiskan plate reader.

LXRβ = target: T1, LXRβ (Homo sapiens, UniProt P55055); settings: stated as considered, no test described; cited from earlier work
T1 sequence (P55055 1-460): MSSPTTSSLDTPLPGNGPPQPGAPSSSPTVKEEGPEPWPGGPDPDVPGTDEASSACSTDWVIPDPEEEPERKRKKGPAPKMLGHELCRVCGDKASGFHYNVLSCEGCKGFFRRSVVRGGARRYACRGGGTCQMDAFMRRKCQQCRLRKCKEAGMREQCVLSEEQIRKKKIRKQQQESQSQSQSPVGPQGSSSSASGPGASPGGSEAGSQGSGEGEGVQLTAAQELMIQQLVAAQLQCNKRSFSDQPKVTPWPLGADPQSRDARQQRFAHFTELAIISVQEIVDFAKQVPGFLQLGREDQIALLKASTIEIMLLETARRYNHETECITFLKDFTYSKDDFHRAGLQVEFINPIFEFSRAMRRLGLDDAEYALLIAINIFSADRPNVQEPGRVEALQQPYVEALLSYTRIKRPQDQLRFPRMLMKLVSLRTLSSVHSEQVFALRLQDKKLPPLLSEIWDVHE

[2] = LXRβ−/− macrophages versus wildtype, 1.0 μM
[3] = Mus musculus, Macrophage, wildtype macrophages

In the case of `O=S(=O)(c1ccccc1)N(CC(F)(F)F)c1ccc(C(O)(C(F)(F)F)C(F)(F)F)cc1` [Compound 1, N-(2,2,2-trifluoroethyl)-N-[4-(2,2,2-trifluoro-1-hydroxy-1-trifluoromethylethyl)-phenyl]-benzene sulfonamide], the “agonist-dependent ABCA1 mRNA induction” value (ABCA1 mRNA; LXRαβ−/− macrophages, 1.0 μM) is reported as “completely blocks the response”, the “agonist-dependent ABCA1 mRNA induction” value (ABCA1 mRNA; LXRα−/− macrophages, 1.0 μM) is reported as “no effect” and the “reduction of agonist-dependent induction of ABCA1” value (ABCA1 mRNA; [2]) is reported as 82%. The fold induction at 1 µM (ABCA1 mRNA; [3]) was 28, the “agonist-dependent ABCG1 mRNA induction” value (ABCG1 mRNA; LXRαβ−/− macrophages, 1.0 μM) was “completely blocks the response” and the “agonist-dependent ABCG1 mRNA induction” value (ABCG1 mRNA; LXRα−/− macrophages, 1.0 μM) was “no effect”. For the same molecule, the “reduction of agonist-dependent induction of ABCG1” value (ABCG1 mRNA; [2]) was 50%, the fold induction at 1 µM (ABCG1 mRNA; [3]) was 8 and the “effect on plasma glucose (hyperglycemia)” value [1] was “significantly reduces hyperglycemia in db/db mice”. The “binding and activation of LXRβ” value (LXRβ) was “binds and activates both LXRα and LXRβ with similar potency and efficacy”.
